Reference: ChEMBL document CHEMBL1201862, “PubChem BioAssay data set” (2004)
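The compound was tested at five concentrations on cells cultured in 96-well plates, with a 48-hour exposure period. GI50 is the concentration that inhibits growth by half.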 Active and inactive are the calls of the source. Cut-off read from the data, not from the text of the source: active = GI50 up to about 1.1 µM and inactive = higher.

Key:
Assay in all cases: NCI anticancer screen, dose series, 48 h
OVCAR-3 = tested on: OVCAR-3
SN12C = tested on: SN12C
SF-295 = tested on: SF-295
SR = tested on: SR
A549 = tested on: A549
NCI-H522 = tested on: NCI-H522
M14 = tested on: M14
UO-31 = tested on: UO-31
U-251 = tested on: U-251
OVCAR-5 = tested on: OVCAR-5
MOLT-4 = tested on: MOLT-4
SK-MEL-5 = tested on: SK-MEL-5
OVCAR-8 = tested on: OVCAR-8
NCI-H460 = tested on: NCI-H460
RXF 393 = tested on: RXF 393
EKVX = tested on: EKVX
HT-29 = tested on: HT-29

Measured: GI50

O=C1C2Cc3ccccc3CN2C(=O)N1CN1CCCCC1 (centres undefined)
inactive: OVCAR-3 > 100 µM | SN12C > 100 µM | SF-295 > 100 µM | SR 97.5 µM | A549 > 100 µM | NCI-H522 > 100 µM | M14 > 100 µM | UO-31 > 100 µM | U-251 > 100 µM | OVCAR-5 > 100 µM | MOLT-4 > 100 µM | SK-MEL-5 > 100 µM | OVCAR-8 > 100 µM | NCI-H460 > 100 µM

COC(=O)C1CCC(=O)N1/C(C)=N/NC(=O)Nc1ccc(Cl)c(Cl)c1 (centres undefined)
inactive: OVCAR-3 > 100 µM | SN12C > 100 µM | SF-295 > 100 µM | SR > 100 µM | RXF 393 > 100 µM | EKVX > 100 µM | A549 > 100 µM | M14 > 100 µM | UO-31 > 100 µM | U-251 > 100 µM | MOLT-4 99.1 µM | SK-MEL-5 > 100 µM | OVCAR-8 > 100 µM | NCI-H460 > 100 µM

O=C(CC1(O)C(=O)Nc2ccccc21)c1ccccc1O (centres undefined)
inactive: OVCAR-3 > 100 µM | SN12C > 100 µM | SF-295 > 100 µM | HT-29 > 100 µM | RXF 393 > 100 µM | EKVX > 100 µM | A549 > 100 µM | NCI-H522 > 100 µM | M14 > 100 µM | UO-31 91.6 µM | OVCAR-5 > 100 µM | MOLT-4 > 100 µM | SK-MEL-5 > 100 µM | OVCAR-8 > 100 µM | NCI-H460 > 100 µM

COc1ccc(C)cc1-c1cc(Sc2ccccc2)c(-c2cc(C)ccc2OC)o1
inactive: OVCAR-3 > 31.6 µM | SN12C > 31.6 µM | SF-295 > 100 µM | HT-29 > 31.6 µM | EKVX > 31.6 µM | A549 > 31.6 µM | NCI-H522 > 31.6 µM | M14 > 31.6 µM | UO-31 > 31.6 µM | U-251 > 31.6 µM | OVCAR-5 > 100 µM | MOLT-4 > 31.6 µM | SK-MEL-5 > 31.6 µM | OVCAR-8 > 31.6 µM | NCI-H460 > 31.6 µM

N#C/C(=C\c1cccc(O)c1O)C(N)=O
inactive: OVCAR-3 40.9 µM | SN12C 45.6 µM | SF-295 58.1 µM | HT-29 58.5 µM | RXF 393 3.22 µM | EKVX 34.8 µM | A549 65.3 µM | NCI-H522 21 µM | M14 67.1 µM | UO-31 22.7 µM | U-251 61.4 µM | OVCAR-5 > 100 µM | MOLT-4 35.9 µM | OVCAR-8 60.8 µM | NCI-H460 29.4 µM

O=C(OCc1ccccc1)N1N=NC2C1C1CC(OCc3ccccc3)(OCc3ccccc3)C2O1 (centres undefined)
inactive: OVCAR-3 > 100 µM | SN12C > 100 µM | SF-295 > 100 µM | HT-29 > 100 µM | RXF 393 > 100 µM | A549 > 100 µM | M14 > 100 µM | UO-31 > 100 µM | U-251 > 100 µM | OVCAR-5 > 100 µM | MOLT-4 > 100 µM | SK-MEL-5 > 100 µM | NCI-H460 > 100 µM

Cc1nc2c(n1C(C)(C)C)C(=O)c1ccccc1C2=O
inactive: OVCAR-3 38.6 µM | SN12C 50.5 µM | SF-295 87.3 µM | HT-29 44.1 µM | SR 45 µM | RXF 393 > 100 µM | EKVX > 100 µM | A549 92 µM | NCI-H522 44 µM | M14 > 100 µM | UO-31 37.2 µM | U-251 84.5 µM | MOLT-4 49 µM | SK-MEL-5 38.9 µM | OVCAR-8 56.8 µM | NCI-H460 36.7 µM

COc1cc2cccc(/N=C/c3c(Br)ccc(OC)c3OC(C)C)c2cc1OC
inactive: OVCAR-3 33.7 µM | SN12C > 100 µM | SF-295 53.6 µM | HT-29 32.2 µM | EKVX > 100 µM | A549 82.4 µM | NCI-H522 30.5 µM | M14 27.1 µM | UO-31 47.8 µM | U-251 32.8 µM | OVCAR-5 > 100 µM | MOLT-4 28.3 µM | SK-MEL-5 55.7 µM | OVCAR-8 44.4 µM | NCI-H460 > 100 µM

CC1(Sc2ccccc2)CN(Cc2ccccc2)C1=O (centres undefined)
inactive: OVCAR-3 > 100 µM | SN12C > 100 µM | SF-295 > 100 µM | HT-29 > 100 µM | RXF 393 > 100 µM | EKVX > 100 µM | A549 > 100 µM | NCI-H522 60.3 µM | M14 > 100 µM | UO-31 22.8 µM | U-251 > 100 µM | MOLT-4 49.7 µM | SK-MEL-5 > 100 µM | OVCAR-8 > 100 µM | NCI-H460 > 100 µM

NC(=O)C12CC3CC(CC(Br)(C3)C1)C2
inactive: OVCAR-3 > 100 µM | SN12C > 100 µM | SF-295 > 100 µM | HT-29 > 100 µM | SR > 100 µM | EKVX > 100 µM | A549 > 100 µM | NCI-H522 > 100 µM | M14 > 100 µM | UO-31 > 100 µM | U-251 > 100 µM | OVCAR-5 > 100 µM | MOLT-4 > 100 µM | SK-MEL-5 > 100 µM | OVCAR-8 > 100 µM | NCI-H460 > 100 µM

CC(C)(C)c1cc2c(OP(c3ccccc3)c3ccccc3)c(c1)Cc1cc(C(C)(C)C)cc(c1OP(c1ccccc1)c1ccccc1)Cc1cc(C(C)(C)C)cc(c1OP(c1ccccc1)c1ccccc1)Cc1cc(C(C)(C)C)cc(c1OP(c1ccccc1)c1ccccc1)C2
inactive: OVCAR-3 > 5 µM | SN12C > 5 µM | SF-295 > 5 µM | HT-29 > 5 µM | SR 2.66 µM | RXF 393 19.8 µM | EKVX > 5 µM | A549 > 5 µM | NCI-H522 > 5 µM | M14 > 5 µM | UO-31 > 5 µM | U-251 > 5 µM | OVCAR-5 > 5 µM | MOLT-4 > 5 µM | SK-MEL-5 > 5 µM | OVCAR-8 > 5 µM | NCI-H460 > 5 µM

CC1=CC(C)(c2c[nH]c3ccccc23)CC(C)(C)c2c1[nH]c1ccccc21 (centres undefined)
inactive: OVCAR-3 14 µM | SN12C 14.3 µM | SF-295 14.5 µM | HT-29 12.9 µM | SR 12.5 µM | RXF 393 12.4 µM | EKVX 15.6 µM | A549 14 µM | M14 17.9 µM | UO-31 13.2 µM | U-251 15.9 µM | OVCAR-5 18 µM | MOLT-4 6.93 µM | OVCAR-8 13.7 µM | NCI-H460 17 µM

O=c1[nH]c(-c2ccc(-c3nc4cc([N+](=O)[O-])ccc4c(=O)[nH]3)cc2)nc2cc([N+](=O)[O-])ccc12
inactive: OVCAR-3 > 100 µM | SN12C > 100 µM | SF-295 > 100 µM | HT-29 > 100 µM | SR > 100 µM | RXF 393 > 100 µM | EKVX > 100 µM | A549 > 100 µM | NCI-H522 > 100 µM | M14 > 100 µM | UO-31 > 100 µM | U-251 > 100 µM | OVCAR-5 > 100 µM | MOLT-4 > 100 µM | SK-MEL-5 > 100 µM | OVCAR-8 > 100 µM | NCI-H460 > 100 µM

Cc1cc(N(CCC#N)CCC#N)ccc1/C=N\c1ccc(C(=O)NN2C(=O)/C(=C/c3ccc(N(CCC#N)CCC#N)cc3)N=C2c2cc([N+](=O)[O-])ccc2Cl)cc1
inactive: OVCAR-3 > 100 µM | SN12C > 100 µM | HT-29 80.5 µM | RXF 393 > 100 µM | EKVX > 100 µM | A549 > 100 µM | M14 62.7 µM | UO-31 > 100 µM | U-251 > 100 µM | OVCAR-5 > 100 µM | SK-MEL-5 55.3 µM | OVCAR-8 > 100 µM | NCI-H460 > 100 µM

O=C1c2ccccc2C(=O)c2c1ccc1c3ccccc3n(Cc3ccccc3)c21
inactive: OVCAR-3 > 100 µM | SN12C > 100 µM | SF-295 > 100 µM | HT-29 > 100 µM | SR > 100 µM | EKVX > 100 µM | A549 > 100 µM | NCI-H522 > 100 µM | M14 > 100 µM | UO-31 > 100 µM | OVCAR-5 > 100 µM | MOLT-4 > 100 µM | SK-MEL-5 > 100 µM | OVCAR-8 > 100 µM | NCI-H460 88.9 µM

COc1ccc(/C=C(\NC(=O)c2ccccc2)c2nc3ccccc3[nH]2)cc1
inactive: OVCAR-3 34.5 µM | SN12C 41.3 µM | HT-29 36.4 µM | SR 28.1 µM | EKVX 35.9 µM | A549 41.6 µM | NCI-H522 24.7 µM | M14 33.4 µM | UO-31 22.4 µM | U-251 30.3 µM | OVCAR-5 29 µM | MOLT-4 24.5 µM | SK-MEL-5 14.8 µM | OVCAR-8 39.3 µM | NCI-H460 34.2 µM

C[C@]12CC/C(=N\OC(=O)Nc3ccccc3)C=C1CC[C@@H]1C2CC[C@@]2(C)C1CC[C@@H]2OC(=O)Nc1ccccc1 (some centres undefined)
inactive: OVCAR-3 > 100 µM | SN12C 11.7 µM | SF-295 47.9 µM | HT-29 > 100 µM | EKVX > 100 µM | A549 > 100 µM | M14 35.9 µM | UO-31 > 100 µM | U-251 > 100 µM | OVCAR-5 > 100 µM | MOLT-4 > 100 µM | SK-MEL-5 23.1 µM | OVCAR-8 > 100 µM | NCI-H460 > 100 µM
